Reference: US12115182B2, “Adenosine A2A agonists for the treatment of cytokine storm syndrome” (priority 2021, dated 2024)
“Also recorded” adds a separate entry of the source.

Tests used:
COVID-19 patients = experiment: Regadenoson infusion in hospitalized COVID-19 patients: safety and clinical monitoring; format: in vivo, human; conditions: for toxicities / side effects (nausea): during infusion or 30 days of follow-up; for SpO2: before vs 24 hours after RA infusion, pulse oximetry, N=5; for blood pressure: during and post RA infusion
Description: (§1) In cohort 1 of this trial, we tested the safety, tolerability, and toxicity of regadenoson in 5 COVID-19 patients (WHO stages 4-5) receiving supplemental oxygen without mechanical ventilation. All subjects received an infused loading dose of 5.0 μg/kg up to a maximum of 400 μg over 30 minutes, followed by a maintenance dose of 1.44 μg/kg/hr for 6 hours. Toxicity of regadenoson was graded by using Common Terminology for Adverse Events Criteria. Vital signs, pulse oximetry, arterial blood gas, laboratory studies, and electrocardiograms were performed on a schedule commensurate with level of care to identify potential risk of the study drug during and 12 hours post infusion. The trial was monitored by an NIH designated DSMB. Peripheral blood samples were collected at 4 timepoints. Along with clinical monitoring, plasma levels of cytokines (14-plex Luminex panel) were measured at various time points. Cytokine data were analyzed by SAS 9.5 PROC MIXED. Activation of peripheral blood mononuclear cells including iNKT cells was analyzed by flow cytometry. Flow cytometry data were analyzed by FCS Express 7 Research edition and GraphPad Prism v9. The plasma levels of regadenoson were determined via liquid chromatography-mass spectrometry.
Consented Covid-19 patients were treated with RA administered intravenously using a pediatric infusion pump at a loading dose rate of 5 μg/kg/hr for 30 min followed by a maintenance dose of 1.44 μg/kg/hr for 6 hours. Subjects' vital signs including oxygen saturation (SpO2), blood pressure, heart rate and respiratory rate were monitored throughout RA infusion.
Blood samples were drawn as a source of peripheral blood mononuclear cells (PBMCs). Cells were frozen in 10% DMSO and thawed for analysis of live cells by flow cytometry. Cytokines, CRP, and D dimer levels were measured in plasma. Blood samples were collected just prior to the start of RA infusion (0 hr), just prior to the end of the loading dose (30 min), 4 hours into the maintenance dose (4.5 hr), and the next day (24 hr).

[1] = Plasma levels of regadenoson in COVID-19 patients (LC-MS); format: in vivo, human; conditions: loading dose then 1.44 μg/kg/hr for 6 hours
Description: as §1

[2] = test system: SARS-CoV-2 strain B.1.351; format: in vivo, Golden Syrian hamster
[3] = cited from earlier work
[4] = PI day 7, compared to control group

CNC(=O)c1cnn(-c2nc(N)c3ncn([C@@H]4O[C@H](CO)[C@@H](O)[C@H]4O)c3n2)c1 [Regadenoson]
toxicities / side effects (nausea) (COVID-19 patients; 5 COVID-19 patients): Transient and self-limiting nausea was reported by a single subject
toxicities / side effects (nausea) (COVID-19 patients; 5 COVID-19 patients, listed as RA): 1 case of transient self-limiting nausea, but no other toxicities or reportable side effects
serious adverse events (COVID-19 patients; 5 COVID-19 patients, loading dose 5.0 μg/kg over 30 minutes, maintenance 1.44 μg/kg/hr for 6 hours): No serious adverse events were observed
time to discharge (COVID-19 patients; 5 patients, all recovered): 3 to 9 days
D dimer levels (COVID-19 patients; 24 hours post RA infusion, n=5): significantly decreased
SpO2 after the RA infusion (COVID-19 patients; Case 3, 88% on admission): 97%
SpO2 (COVID-19 patients): significantly less (P<0.05) than 24 hours after treatment; also recorded: statistically significant difference
SpO2 (COVID-19 patients; listed as RA): significantly further elevated
blood pressure (COVID-19 patients; n=5): no significant changes
blood pressure (COVID-19 patients; n=5, listed as RA): remain stable
CRP levels reduced by (COVID-19 patients; in 3 of 4 patients, 24 hours after RA infusion): > 50%
vital signs (COVID-19 patients; throughout the infusion and 12 hours post infusion): stable
subjective symptoms (COVID-19 patients; within 24 hours of RA treatment): subjective improvement in all subjects
median peak plasma levels of regadenoson [1]: 14.24 ng/mL
peak plasma levels of regadenoson, range [1]: 3.64 to 78.64 ng/mL
albumin leakage into BAL [2, 4]: slight increase; also recorded: did not significantly
plasma IL13 [2, 4]: slightly depressed; also recorded: did not significantly
time course of the disease or viral titer detected in throat swabs ([2]; RT-qPCR): did not significantly
plasma IL4 ([2]; compared to control): depressed; also recorded: did significantly
decrease in weight gain ([2]; daily weights, vs control group): did not significantly
histologic distribution or severity of lung pathology ([2]; day 7): did not significantly
plasma Transforming Growth Factor beta (TGFb) ([2]; day 7, compared to control): decreased; also recorded: did significantly
spread of virus to olfactory bulb (brain) ([2]; day 7, compared to control): decreased; also recorded: did significantly
respiratory physiology parameters (EF50, Rpef, Penh) ([2]; whole body plethysmography, PI day 7): did not significantly
peak plasma level ([3]; 400 μg bolus over 10 seconds for myocardial perfusion imaging): about 15 ng/ml
steady-state plasma level ([3]; after infusion for 6 hours of 1.44 μg/kg/h, prior sickle cell disease trial): about 2 ng/ml
terminal half-life ([3]; in vivo): 2 h
safety / side effects ([3]; infusion at 1.44 μg/kg/h for 24-48 h, sickle cell crisis and lung transplantation): safe and devoid of side effects
